Experimental data from publication PMC10763615, “Identification and engineering of potent cyclic peptides with selective or promiscuous binding through biochemical profiling and bioinformatic data analysis” (RSC Chemical Biology, 2023).
Read-outs that look alike come from different tables or passages of the source. Positions of bridges follow the written chain, without caps; N, C: chain ends. Residues, ends and D or L forms follow the SMILES beside them. No end group written: not given here.

Experiments:
FGF-R1C ECD [1] = molecular target: T1, FGF-R1C ECD (Homo sapiens, UniProt P11362); experiment: biochemical; format: binding; set-up: DNA constructs for the extracellular domain (ECD) of human FGF-; HPC4 (C); made in house; host or cells: HEK 293-6E
T1 sequence (P11362 22-376 limits assumed): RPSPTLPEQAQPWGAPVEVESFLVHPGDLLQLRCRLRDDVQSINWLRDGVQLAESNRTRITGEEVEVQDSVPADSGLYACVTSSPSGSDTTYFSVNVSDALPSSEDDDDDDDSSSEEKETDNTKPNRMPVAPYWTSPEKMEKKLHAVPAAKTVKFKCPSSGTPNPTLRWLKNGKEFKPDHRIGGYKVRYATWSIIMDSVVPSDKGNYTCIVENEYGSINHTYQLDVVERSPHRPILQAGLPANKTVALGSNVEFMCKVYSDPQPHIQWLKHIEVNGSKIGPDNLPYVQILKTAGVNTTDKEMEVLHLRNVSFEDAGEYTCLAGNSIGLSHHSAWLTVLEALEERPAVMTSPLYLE
In short: (§1)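 Biotinylated FGF-R ECD on streptavidin biosensors was dipped into ~1 μM crude peptide in PBS pH7.4 with 0.05% Tween-20 and 0.01% BSA for association, then into buffer for dissociation, and followed by BLI. Fitted KD values were adjusted for peptide concentration measured by UPLC-CAD.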

FGF-R3C ECD [2] = molecular target: T2, FGF-R3C ECD (Homo sapiens, UniProt P22607); experiment: biochemical; format: binding; set-up: DNA constructs for the extracellular domain (ECD) of human FGF-; HPC4 (C); made in house; host or cells: HEK 293-6E
T2 sequence (P22607 23-375 limits assumed): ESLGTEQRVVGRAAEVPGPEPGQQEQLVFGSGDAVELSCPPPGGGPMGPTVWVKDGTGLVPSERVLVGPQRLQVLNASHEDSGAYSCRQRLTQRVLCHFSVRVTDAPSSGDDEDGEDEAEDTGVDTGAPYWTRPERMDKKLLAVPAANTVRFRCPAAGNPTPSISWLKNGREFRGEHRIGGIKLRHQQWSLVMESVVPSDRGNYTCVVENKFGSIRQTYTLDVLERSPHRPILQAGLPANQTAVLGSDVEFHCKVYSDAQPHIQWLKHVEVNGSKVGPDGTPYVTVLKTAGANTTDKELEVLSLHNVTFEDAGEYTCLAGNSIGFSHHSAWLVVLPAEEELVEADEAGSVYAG
In short: as §1

FGF-R4 ECD [3] = molecular target: T3, FGF-R4 ECD (Homo sapiens, UniProt P22455); experiment: single concentration BLI of crude peptides; format: binding
T3 construct: DNA constructs for the extracellular domain (ECD) of human FGF-; HPC4 (C); made in house; host or cells: HEK 293-6E
T3 sequence (P22455 22-369 limits assumed): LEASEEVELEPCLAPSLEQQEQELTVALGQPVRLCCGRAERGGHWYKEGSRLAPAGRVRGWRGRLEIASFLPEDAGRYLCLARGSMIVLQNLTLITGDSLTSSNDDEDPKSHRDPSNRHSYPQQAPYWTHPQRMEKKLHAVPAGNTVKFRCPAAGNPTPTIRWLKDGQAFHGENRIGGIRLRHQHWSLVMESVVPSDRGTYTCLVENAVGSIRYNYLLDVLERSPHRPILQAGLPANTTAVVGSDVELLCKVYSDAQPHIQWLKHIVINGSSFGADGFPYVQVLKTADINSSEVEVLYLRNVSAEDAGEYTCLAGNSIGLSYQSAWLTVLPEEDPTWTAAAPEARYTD
In short: as §1

FGF-R1C ECD [4] = molecular target: T1, FGF-R1C ECD; experiment: biochemical
Procedure: (§2) KD affinity binding measurements were obtained by biolayer interferometry (BLI) instruments (Fortebio Octet HTX, or Sartorius Octet RH16 using either 8 or 16 channel mode.
(§3) For single concentration binding experiments, 50 μM peptide stocks in folding buffer were diluted 1:50 in mRNA display selection buffer (PBS pH7.4 supplemented with 0.05% Tween-20 and 0.01% BSA) in either a 96 well black plate, or a 384 well tilted bottom microplate (ForteBio). Biotinylated FGF-R protein was loaded onto Streptavidin-functionalised biosensors (ForteBio) and immersed into ~1 μM peptide to obtain association kinetics curves. Dissociation kinetics curves were obtained by subsequent immersion of ligand-associated loaded sensors into a 1:50 dilution of folding buffer in mRNA display selection buffer. Fitted KD data was adjusted for concentration as determined by UPLC-CAD.
(§4) For accurate multi-concentration KD determination, dilution series of each peptide were made, and association and dissociation kinetics curves were obtained as above for each concentration to fit a multi-point KD binding model. Data collection and analysis was performed using the Octet Instrument Control […]
(§5) concentration assay kinetics curves shown in supplementary Figure S 19-24.

FGF-R3C ECD [5] = molecular target: T2, FGF-R3C ECD; experiment: biochemical
Procedure: as §2, §3, §4, §5

FGF-R4 ECD [6] = molecular target: T3, FGF-R4 ECD; experiment: multi-concentration BLI of purified peptides; format: binding; conditions: purified trimer-18 library peptides
Procedure: as §2, §3, §4, §5

[7] = crude NNK peptides, single concentration BLI (Table S3), read-out: KD (4)

| Compound | Kd (FGF-R1C ECD [1]) | Kd (FGF-R3C ECD [2]) | Kd (FGF-R4 ECD [3]; [7]) | Kd (FGF-R1C ECD [4]) | Kd (FGF-R3C ECD [5]) | Kd (FGF-R4 ECD [6]) | R4 KD (nM) (FGF-R4 ECD [6]) | Kd (FGF-R4 ECD [3]) |
| --- | --- | --- | --- | --- | --- | --- | --- | --- |
| CSCC[C@H](N)C(=O)N[C@H]1CSSC[C@@H](C(=O)NCC(=O)N[C@@H](CO)C(=O)NCC(=O)N[C@@H](CO)C(=O)N[C@@H](CC(=O)O)C(=O)N[C@@H](Cc2ccc(O)cc2)C(=O)N[C@@H](CCCCN)C(=O)N[C@@H](CC(=O)O)C(=O)N[C@@H](CC(=O)O)C(=O)N[C@@H](CC(=O)O)C(=O)N[C@@H](CC(=O)O)C(=O)N[C@@H](CCCCN)C(N)=O)NC(=O)[C@H](Cc2ccccc2)NC(=O)[C@H](C(C)C)NC(=O)[C@H](Cc2ccccc2)NC(=O)[C@@H]2CCCN2C(=O)[C@H](CC(C)C)NC(=O)[C@H](Cc2c[nH]c3ccccc23)NC(=O)[C@H](CO)NC(=O)[C@H](CC(=O)O)NC(=O)[C@H](Cc2ccccc2)NC(=O)[C@H](C(C)C)NC1=O (H-MCVFDSWLPFVFCGSGSDYKDDDDK-NH2; disulfide 2-13) | > 10000 nM | 1060 nM | > 10000 nM |  |  |  |  |  |
| CSCC[C@H](N)C(=O)N[C@H]1CSSC[C@@H](C(=O)NCC(=O)N[C@@H](CO)C(=O)NCC(=O)N[C@@H](CO)C(=O)N[C@@H](CC(=O)O)C(=O)N[C@@H](Cc2ccc(O)cc2)C(=O)N[C@@H](CCCCN)C(=O)N[C@@H](CC(=O)O)C(=O)N[C@@H](CC(=O)O)C(=O)N[C@@H](CC(=O)O)C(=O)N[C@@H](CC(=O)O)C(=O)N[C@@H](CCCCN)C(N)=O)NC(=O)[C@H](Cc2ccc(O)cc2)NC(=O)[C@H](C(C)C)NC(=O)[C@H](Cc2ccccc2)NC(=O)[C@@H]2CCCN2C(=O)[C@H](CC(C)C)NC(=O)[C@H](Cc2c[nH]c3ccccc23)NC(=O)[C@H](CO)NC(=O)[C@H](CC(=O)O)NC(=O)[C@H](Cc2ccccc2)NC(=O)[C@H](C(C)C)NC1=O (H-MCVFDSWLPFVYCGSGSDYKDDDDK-NH2; disulfide 2-13) | > 10000 nM | 618 nM | > 10000 nM |  |  |  |  |  |
| CSCC[C@H](NC(C)=O)C(=O)N[C@H]1CSSC[C@@H](C(=O)NCC(=O)N[C@@H](CO)C(=O)NCC(=O)N[C@@H](CO)C(=O)N[C@@H](CC(=O)O)C(=O)N[C@@H](Cc2ccc(O)cc2)C(=O)N[C@@H](CCCCN)C(=O)N[C@@H](CC(=O)O)C(=O)N[C@@H](CC(=O)O)C(=O)N[C@@H](CC(=O)O)C(=O)N[C@@H](CC(=O)O)C(=O)N[C@@H](CCCCN)C(N)=O)NC(=O)[C@H](C)NC(=O)[C@H](CCCCN)NC(=O)[C@H](CCCNC(=N)N)NC(=O)[C@H](Cc2c[nH]c3ccccc23)NC(=O)[C@H](CC(C)C)NC(=O)[C@H](CC(C)C)NC(=O)[C@H](Cc2ccc(O)cc2)NC(=O)[C@H](Cc2ccc(O)cc2)NC(=O)[C@H](Cc2ccccc2)NC(=O)[C@H](CC(C)C)NC(=O)[C@H](CC(=O)O)NC(=O)[C@H](CC(N)=O)NC1=O [4.18] |  |  |  | > 1000 nM | > 1000 nM | 602 nM |  |  |
| CC[C@H](C)[C@@H]1NC(=O)[C@H](Cc2ccccc2)NC(=O)[C@H](CCCCN)NC(=O)[C@H](CC(N)=O)NC(=O)[C@H](Cc2ccc(O)cc2)NC(=O)[C@@H](NC(=O)[C@H](CCSC)NC(C)=O)CSSC[C@@H](C(=O)NCC(=O)N[C@@H](CO)C(=O)NCC(=O)N[C@@H](CO)C(=O)N[C@@H](CC(=O)O)C(=O)N[C@@H](Cc2ccc(O)cc2)C(=O)N[C@@H](CCCCN)C(=O)N[C@@H](CC(=O)O)C(=O)N[C@@H](CC(=O)O)C(=O)N[C@@H](CC(=O)O)C(=O)N[C@@H](CC(=O)O)C(=O)N[C@@H](CCCCN)C(N)=O)NC(=O)[C@H](Cc2ccc(O)cc2)NC(=O)[C@H](CC(C)C)NC(=O)[C@H](C(C)C)NC(=O)[C@H](CCCCN)NC(=O)[C@H](Cc2ccc(O)cc2)NC(=O)[C@H](CC(C)C)NC(=O)[C@H]([C@@H](C)O)NC1=O [4.19] |  |  |  | > 1000 nM | > 1000 nM | 790 nM |  |  |
| CSCC[C@H](NC(C)=O)C(=O)N[C@H]1CSSC[C@@H](C(=O)NCC(=O)N[C@@H](CO)C(=O)NCC(=O)N[C@@H](CO)C(=O)N[C@@H](CC(=O)O)C(=O)N[C@@H](Cc2ccc(O)cc2)C(=O)N[C@@H](CCCCN)C(=O)N[C@@H](CC(=O)O)C(=O)N[C@@H](CC(=O)O)C(=O)N[C@@H](CC(=O)O)C(=O)N[C@@H](CC(=O)O)C(=O)N[C@@H](CCCCN)C(N)=O)NC(=O)[C@H](Cc2c[nH]c3ccccc23)NC(=O)[C@H](CC(C)C)NC(=O)[C@H](CC(C)C)NC(=O)[C@H](Cc2ccc(O)cc2)NC(=O)[C@H](Cc2ccc(O)cc2)NC(=O)[C@H](Cc2ccccc2)NC(=O)[C@H](CC(C)C)NC(=O)[C@H](C(C)C)NC(=O)[C@H](CCCCN)NC(=O)[C@H](CCCCN)NC(=O)[C@H](CC(N)=O)NC(=O)[C@H](CCC(=O)O)NC1=O [4.20] |  |  |  | > 1000 nM | > 1000 nM | 321 nM |  |  |
| CC[C@H](C)[C@@H]1NC(=O)[C@H](Cc2c[nH]c3ccccc23)NC(=O)[C@H](Cc2ccc(O)cc2)NC(=O)[C@H](CCCCN)NC(=O)[C@H](C(C)C)NC(=O)[C@H](Cc2c[nH]c3ccccc23)NC(=O)[C@H](Cc2ccc(O)cc2)NC(=O)[C@H](CCCCN)NC(=O)[C@H](CC(=O)O)NC(=O)[C@@H](NC(=O)[C@H](CCSC)NC(C)=O)CSSC[C@@H](C(=O)NCC(=O)N[C@@H](CO)C(=O)NCC(=O)N[C@@H](CO)C(=O)N[C@@H](CC(=O)O)C(=O)N[C@@H](Cc2ccc(O)cc2)C(=O)N[C@@H](CCCCN)C(=O)N[C@@H](CC(=O)O)C(=O)N[C@@H](CC(=O)O)C(=O)N[C@@H](CC(=O)O)C(=O)N[C@@H](CC(=O)O)C(=O)N[C@@H](CCCCN)C(N)=O)NC(=O)[C@H](CCCNC(=N)N)NC(=O)[C@H](Cc2c[nH]c3ccccc23)NC(=O)[C@H](C)NC1=O [4.21] |  |  |  | 773 nM | 509 nM | 411 nM |  |  |
| CSCC[C@H](NC(C)=O)C(=O)N[C@H]1CSSC[C@@H](C(=O)NCC(=O)N[C@@H](CO)C(=O)NCC(=O)N[C@@H](CO)C(=O)N[C@@H](CC(=O)O)C(=O)N[C@@H](Cc2ccc(O)cc2)C(=O)N[C@@H](CCCCN)C(=O)N[C@@H](CC(=O)O)C(=O)N[C@@H](CC(=O)O)C(=O)N[C@@H](CC(=O)O)C(=O)N[C@@H](CC(=O)O)C(=O)N[C@@H](CCCCN)C(N)=O)NC(=O)[C@H](CC(=O)O)NC(=O)[C@H](CCCCN)NC(=O)[C@H](C(C)C)NC(=O)[C@H](Cc2c[nH]c3ccccc23)NC(=O)[C@H](Cc2ccccc2)NC(=O)[C@H](C(C)C)NC(=O)[C@H](Cc2c[nH]cn2)NC(=O)[C@H](CC(C)C)NC(=O)[C@H](CCCCN)NC(=O)[C@H](CCCCN)NC(=O)[C@H](Cc2c[nH]c3ccccc23)NC(=O)[C@H](Cc2ccccc2)NC1=O [4.22] |  |  |  | 2 nM | 12 nM | < 1 nM | sub-nanomolar |  |
| GSGSDYKDDDDK-NH2 [flag, reference compound] | > 10000 nM | > 10000 nM |  |  |  |  |  | > 10000 nM |
